Earlier results in US6444700B1, “Product and method to reduce stress induced immune suppression” (Abbott Laboratories, priority 1998, dated 2002).

SMILES: CC1=C(/C=C/C(C)=C/C=C/C(C)=C/C=C/C=C(C)/C=C/C=C(C)/C=C/C2=C(C)CCCC2(C)C)C(C)(C)CCC1 [β-Carotene]
- toxicity when given in very high doses (compared with vitamin A): not toxic

SMILES: [Se] [selenium]
- intake from foods resulting in fingernail changes and hair loss (seleniferous zone of China): approximately 5 mg per day

SMILES: CC1=C(/C=C/C(C)=C/C=C/C(C)=C/CO)C(C)(C)CCC1 [Vitamin A, retinol]
- sustained daily intake at which signs of toxicity usually appear (foods and supplements): exceeding 15,000 RE
